Test results as given in PubChem BioAssay (NCI).
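The compound was tested at five concentrations on cells cultured in 96-well plates, with a 48-hour exposure period. TGI is the concentration that stops growth completely.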

Assays:
Experiment in all cases: NCI anticancer screen, dose series, 48 h
BT-549 breast = test system: BT-549 breast
CAKI-1 renal = test system: CAKI-1 renal
HOP-62 NSCLC = test system: HOP-62 NSCLC
K-562 leukemia = test system: K-562 leukemia
MCF7 breast = test system: MCF7 breast
MDA-MB-231 breast = test system: MDA-MB-231 breast
SF-539 CNS = test system: SF-539 CNS
SNB-19 CNS = test system: SNB-19 CNS
TK-10 renal = test system: TK-10 renal
RXF 393 renal = test system: RXF 393 renal

Structure (SMILES): COc1ccc2c(c1)-c1[nH]c3ccc(OC)cc3c1CC2
- TGI (BT-549 breast): 32.9 µM
- TGI (CAKI-1 renal): 34.8 µM
- TGI (HOP-62 NSCLC): 30.9 µM
- TGI (K-562 leukemia): 39.6 µM
- TGI (MCF7 breast): 89.7 µM
- TGI (MDA-MB-231 breast): 35 µM
- TGI (SF-539 CNS): 33.7 µM
- TGI (SNB-19 CNS): 30.1 µM
- TGI (TK-10 renal): 31.5 µM

Structure (SMILES): O=C1C=CC2(O)OCCN(CCO)C2=C1 (centres undefined) (tested in a mixture with another compound)
- TGI (BT-549 breast): > 100 µM
- TGI (CAKI-1 renal): > 100 µM
- TGI (HOP-62 NSCLC): > 100 µM
- TGI (K-562 leukemia): > 100 µM
- TGI (MCF7 breast): > 100 µM
- TGI (MDA-MB-231 breast): > 100 µM
- TGI (RXF 393 renal): > 100 µM
- TGI (SNB-19 CNS): > 100 µM
- TGI (TK-10 renal): > 100 µM

Structure (SMILES): CN1CCCOC(c2ccc([N+](=O)[O-])cc2)O1 (centres undefined)
- TGI (BT-549 breast): > 100 µM
- TGI (CAKI-1 renal): > 100 µM
- TGI (HOP-62 NSCLC): > 100 µM
- TGI (K-562 leukemia): > 100 µM
- TGI (MCF7 breast): > 100 µM
- TGI (MDA-MB-231 breast): > 100 µM
- TGI (RXF 393 renal): > 100 µM
- TGI (SF-539 CNS): > 100 µM
- TGI (SNB-19 CNS): > 100 µM
- TGI (TK-10 renal): > 100 µM

Structure (SMILES): Cc1ccc(C2SC(N)=Nc3c2c(C)nn3C(=O)c2ccccc2O)cc1 (centres undefined)
- TGI (BT-549 breast): > 10 µM
- TGI (CAKI-1 renal): > 10 µM
- TGI (HOP-62 NSCLC): > 10 µM
- TGI (K-562 leukemia): > 10 µM
- TGI (MCF7 breast): > 10 µM
- TGI (MDA-MB-231 breast): > 10 µM
- TGI (RXF 393 renal): > 10 µM
- TGI (SF-539 CNS): > 10 µM
- TGI (SNB-19 CNS): > 10 µM
- TGI (TK-10 renal): > 10 µM

Structure (SMILES): C[N+]1(Cc2ccc(Cl)c(Cl)c2)CCCC1C1CCCN(Cc2ccc(Cl)c(Cl)c2)C1 (centres undefined)
- TGI (BT-549 breast): > 100 µM
- TGI (CAKI-1 renal): > 100 µM
- TGI (HOP-62 NSCLC): > 100 µM
- TGI (K-562 leukemia): > 100 µM
- TGI (MCF7 breast): > 100 µM
- TGI (MDA-MB-231 breast): > 100 µM
- TGI (RXF 393 renal): > 100 µM
- TGI (SF-539 CNS): > 100 µM
- TGI (SNB-19 CNS): > 100 µM
- TGI (TK-10 renal): > 100 µM

Structure (SMILES): Cc1cc2nc(N3C(=O)/C(=C/c4ccccc4S)N=C3c3ccccc3)sc2cc1C
- TGI (BT-549 breast): > 100 µM
- TGI (CAKI-1 renal): > 100 µM
- TGI (HOP-62 NSCLC): > 100 µM
- TGI (K-562 leukemia): > 100 µM
- TGI (MCF7 breast): > 100 µM
- TGI (MDA-MB-231 breast): 86 µM
- TGI (RXF 393 renal): 94.4 µM
- TGI (SF-539 CNS): > 100 µM
- TGI (SNB-19 CNS): > 100 µM
- TGI (TK-10 renal): > 100 µM

Structure (SMILES): CC(C)(C)OC(=O)NC(CCC(=O)OCc1ccccc1)C(=O)NCCCO (centres undefined)
- TGI (BT-549 breast): > 100 µM
- TGI (CAKI-1 renal): > 100 µM
- TGI (HOP-62 NSCLC): > 100 µM
- TGI (K-562 leukemia): > 100 µM
- TGI (MCF7 breast): > 100 µM
- TGI (MDA-MB-231 breast): > 100 µM
- TGI (RXF 393 renal): > 100 µM
- TGI (SF-539 CNS): > 100 µM
- TGI (SNB-19 CNS): > 100 µM
- TGI (TK-10 renal): > 100 µM

Structure (SMILES): CC1=C(C)C1[N+](=O)[O-]
- TGI (BT-549 breast): > 100 µM
- TGI (CAKI-1 renal): > 100 µM
- TGI (HOP-62 NSCLC): > 100 µM
- TGI (K-562 leukemia): > 100 µM
- TGI (MCF7 breast): > 100 µM
- TGI (MDA-MB-231 breast): > 100 µM
- TGI (RXF 393 renal): > 100 µM
- TGI (SF-539 CNS): > 100 µM
- TGI (SNB-19 CNS): > 100 µM
- TGI (TK-10 renal): > 100 µM

Structure (SMILES): CN(C(=O)C1CCCCCC1=O)c1ccccc1Cl (centres undefined)
- TGI (BT-549 breast): > 100 µM
- TGI (CAKI-1 renal): > 100 µM
- TGI (HOP-62 NSCLC): > 100 µM
- TGI (MDA-MB-231 breast): > 100 µM
- TGI (RXF 393 renal): > 100 µM
- TGI (SF-539 CNS): > 100 µM
- TGI (SNB-19 CNS): > 100 µM
- TGI (TK-10 renal): > 100 µM

Structure (SMILES): COC(=O)[C@@H](NC(=O)N(CCC#N)CCCN(C(=O)N[C@H](Cc1ccccc1)C(=O)OC)c1ccccc1)C(C)C
- TGI (BT-549 breast): > 100 µM
- TGI (CAKI-1 renal): > 100 µM
- TGI (HOP-62 NSCLC): > 100 µM
- TGI (MCF7 breast): > 100 µM
- TGI (MDA-MB-231 breast): > 100 µM
- TGI (RXF 393 renal): > 100 µM
- TGI (SF-539 CNS): > 100 µM
- TGI (SNB-19 CNS): > 100 µM
- TGI (TK-10 renal): > 100 µM

Structure (SMILES): O=C1CCCC1C(O)(C(F)(F)F)C(F)(F)F (centres undefined)
- TGI (CAKI-1 renal): > 100 µM
- TGI (HOP-62 NSCLC): > 100 µM
- TGI (K-562 leukemia): > 100 µM
- TGI (MCF7 breast): > 100 µM
- TGI (MDA-MB-231 breast): > 100 µM
- TGI (RXF 393 renal): > 100 µM
- TGI (SF-539 CNS): > 100 µM
- TGI (SNB-19 CNS): > 100 µM
- TGI (TK-10 renal): > 100 µM
